Columns and labels:
Type in all cases: physicochemical
[1] = Solution stability profile of Azacitidine in water at 25° C.; parameters: unit not given here
Description: In one embodiment of the invention, a batch of Azacitidine bulk solution was prepared by dissolving the compound (4 mg/mL) and Mannitol (4 mg/mL) in water at room temperature. […]

[2] = Solution stability profile of Azacitidine in water at −1° C. to 0° C.; parameters: RGU / Specified Imp-1 / Specified Imp-2 / RGU-CHO / Total Impurity (excluding RGU & RGU-CHO): unit not given here; conditions: for RGU / RGU-CHO / Specified Imp-1 / Specified Imp-2 / Total Impurity (excluding RGU & RGU-CHO): water, −1° C. to 0° C.
Description: It is evident from the Table I that Fabrication of the Azacitidine in water at room temperature led to a significant increase in the level of “RGU-CHO” in the Bulk Solution. Further, in order to control the degradation rate of Azacitidine, another batch was manufactured in water at possible temperature i.e. −1° C. to 0° C. by dissolving Azacitidine (4 mg/mL) and Mannitol (4 mg/mL) in water at −1° C. to 0° C. and the solution stability results are shown below in Table II.

[3] = Solution stability of Azacitidine bulk solution in Water:Acetonitrile 80:20% v/v at −5 ± 2° C.; parameters: RGU / RGU-CHO: unit not given beside the values
Description: (§1) In another aspect of the invention the fabrication temperature was controlled at −5±3° C., −5±2° C., −5±1° C. preferably −5±2° C. using Water and Acetonitrile ratio in between 95:5 to 70:30 preferably 80:20 (% v/v) respectively. The hold time data of Azacitidine, Decitabine and Bendamustine obtained in solvent mixture of Water and Acetonitrile at a ratio of 80:20 (% v/v), when fabricated at a temperature range of −5±2° C. is presented in Table VIII, IX, X respectively.

[4] = Stability profile of Bendamustine Hydrochloride pre-lyophilized bulk solution in water (5 mg/mL) at 5 ± 3° C.
[5] = Solution stability of Bendamustine Hydrochloride bulk solution in Water:Acetonitrile 80:20% v/v at −5 ± 2° C.
Description: as §1

## Nc1ncn([C@@H]2O[C@H](CO)[C@@H](O)[C@H]2O)c(=O)n1 [Azacitidine]
[1]; 1st hour
  Imp-1: 0.027
  Imp-2: 0.050
  RGU: 0.314
  RGU-CHO: 6.966
  Total Impurity (excluding RGU & RGU-CHO): 0.077
[1]; 2nd hour
  Imp-1: 0.028
  Imp-2: 0.050
  RGU: 0.591
  RGU-CHO: 10.495
  Total Impurity (excluding RGU & RGU-CHO): 0.078
[1]; Initial
  Imp-1: 0.027
  Imp-2: 0.051
  RGU: 0.164
  RGU-CHO: 1.158
  Total Impurity (excluding RGU & RGU-CHO): 0.078
[2]; manufacturing in water at −1° C. to 0° C.
  degradation in RGU-CHO: around 4%
[2]; 1st hour
  RGU: 0.175
  RGU-CHO: 1.767
  Specified Imp-1: 0.025
  Specified Imp-2: 0.051
  Total Impurity (excluding RGU & RGU-CHO): 0.076
[2]; 2nd hour
  RGU: 0.166
  RGU-CHO: 2.283
  Specified Imp-1: 0.025
  Specified Imp-2: 0.051
  Total Impurity (excluding RGU & RGU-CHO): 0.076
[2]; 3rd hour
  RGU: 0.175
  RGU-CHO: 2.921
  Specified Imp-1: 0.026
  Specified Imp-2: 0.051
  Total Impurity (excluding RGU & RGU-CHO): 0.077
[2]; 4th hour
  RGU: 0.191
  RGU-CHO: 4.112
  Specified Imp-1: 0.027
  Specified Imp-2: 0.051
  Total Impurity (excluding RGU & RGU-CHO): 0.078
[2]; Initial
  RGU: 0.158
  RGU-CHO: 0.891
  Specified Imp-1: 0.027
  Specified Imp-2: 0.051
  Total Impurity (excluding RGU & RGU-CHO): 0.078
[3]; 1st hour
  Assay: 101.00
  Imp-1: 0.028
  Imp-2: 0.066
  RGU: 0.145
  RGU-CHO: 0.326
  Total Impurity (excluding RGU & RGU-CHO): 0.094
[3]; 2nd hour
  Assay: 101.30
  Imp-1: 0.028
  Imp-2: 0.066
  RGU: 0.145
  RGU-CHO: 0.45
  Total Impurity (excluding RGU & RGU-CHO): 0.094
[3]; 3rd hour
  Assay: 100.80
  Imp-1: 0.031
  Imp-2: 0.068
  RGU: 0.146
  RGU-CHO: 0.591
  Total Impurity (excluding RGU & RGU-CHO): 0.099
[3]; 4th hour
  Assay: 101.30
  Imp-1: 0.026
  Imp-2: 0.067
  RGU: 0.146
  RGU-CHO: 0.730
  Total Impurity (excluding RGU & RGU-CHO): 0.093
[3]; 5th hour
  Assay: 101.00
  Imp-1: 0.049
  Imp-2: 0.069
  RGU: 0.148
  RGU-CHO: 0.839
  Total Impurity (excluding RGU & RGU-CHO): 0.118
[3]; Initial
  Assay: 101.80
  Imp-1: 0.05
  Imp-2: 0.068
  RGU: 0.143
  RGU-CHO: 0.164
  Total Impurity (excluding RGU & RGU-CHO): 0.118

## Cl.Cn1c(CCCC(=O)O)nc2cc(N(CCCl)CCCl)ccc21 [Bendamustine Hydrochloride]
[4]; 4 hr
  Bendamustine Dimer (RRT 1.23): 0.06%
  Bendamustine Ethyl Ester (BD 5) (RRT 1.38): 0.01%
  H-unk (Highest Unknown Impurity): 0.01%
  Monohydroxy Bendamustine (RRT 0.47): 0.58%
  Total Related Substances: 0.69%
[4]; 8 hr
  Bendamustine Dimer (RRT 1.23): 0.10%
  Bendamustine Ethyl Ester (BD 5) (RRT 1.38): 0.01%
  H-unk (Highest Unknown Impurity): 0.01%
  Monohydroxy Bendamustine (RRT 0.47): 1.59%
  Total Related Substances: 1.77%
[4]; 24 hr
  Bendamustine Dimer (RRT 1.23): 0.19%
  Bendamustine Ethyl Ester (BD 5) (RRT 1.38): 0.01%
  H-unk (Highest Unknown Impurity): 0.01%
  Monohydroxy Bendamustine (RRT 0.47): 4.13%
  Total Related Substances: 4.37%
[4]; Initial
  Bendamustine Dimer (RRT 1.23): 0.04%
  Bendamustine Ethyl Ester (BD 5) (RRT 1.38): 0.00%
  H-unk (Highest Unknown Impurity): 0.01%
  Monohydroxy Bendamustine (RRT 0.47): 0.12%
  Total Related Substances: 0.20%
[5]; 1 hr
  Bendamustine Dimer (RRT 1.23): 0.05%
  Bendamustine Ethyl Ester (BD 5) (RRT 1.38): 0.003%
  H-unk (Highest Unknown Impurity): 0.03%
  Monohydroxy Bendamustine (RRT 0.47): 0.02%
  Total Related Substances: 0.17%
[5]; 2 hr
  Bendamustine Dimer (RRT 1.23): 0.05%
  Bendamustine Ethyl Ester (BD 5) (RRT 1.38): 0.003%
  H-unk (Highest Unknown Impurity): 0.03%
  Monohydroxy Bendamustine (RRT 0.47): 0.03%
  Total Related Substances: 0.18%
[5]; 3 hr
  Bendamustine Dimer (RRT 1.23): 0.05%
  Bendamustine Ethyl Ester (BD 5) (RRT 1.38): 0.003%
  H-unk (Highest Unknown Impurity): 0.03%
  Monohydroxy Bendamustine (RRT 0.47): 0.04%
  Total Related Substances: 0.19%
[5]; 6 hr
  Bendamustine Dimer (RRT 1.23): 0.06%
  Bendamustine Ethyl Ester (BD 5) (RRT 1.38): 0.003%
  H-unk (Highest Unknown Impurity): 0.03%
  Monohydroxy Bendamustine (RRT 0.47): 0.07%
  Total Related Substances: 0.23%
[5]; 8 hr
  Bendamustine Dimer (RRT 1.23): 0.06%
  Bendamustine Ethyl Ester (BD 5) (RRT 1.38): 0.003%
  H-unk (Highest Unknown Impurity): 0.03%
  Monohydroxy Bendamustine (RRT 0.47): 0.09%
  Total Related Substances: 0.25%
[5]; Initial
  Bendamustine Dimer (RRT 1.23): 0.05%
  Bendamustine Ethyl Ester (BD 5) (RRT 1.38): 0.003%
  H-unk (Highest Unknown Impurity): 0.03%
  Monohydroxy Bendamustine (RRT 0.47): 0.01%
  Total Related Substances: 0.15%

Source: US9872873B2, “Process for preparing stable pharmaceutical compositions of compounds susceptible to hydrolysis” (Fresenius Kabi Oncology Limited, priority 2012, dated 2018)
